The source of these data is patent US6949522B2, “β-2′- or 3′-halonucleosides” (Pharmasset, Inc., priority 2001, dated 2005).

The nature of series [1]: in vitro. In kind it is cell-based, human. To be noted: human. The procedure, abridged:
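Cytotoxicity measured in uninfected PHA-stimulated human PBM cells (Ficoll-Hypaque-isolated from HIV-1/HBV-seronegative donors), CEM T-lymphoblastoid and Vero cells exposed to ten-fold serial drug dilutions. Viability read by MTT dye reduction, overnight dye incubation, absorbance at 570 nm.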

Series [2] in a line: in vitro. The conditions noted are these: African green monkey, Cytotoxicity (IC50) Vero. In kind it is cell-based, African green monkey.
A further series concerns β-actin gene. In kind it is cell-based, human. The conditions noted are these: human, 7 days, 10 μM. The protocol: Low passage number HepG2 cells, obtained from American Tissue Culture Collection (ATCC, Manassas, Va.) were seeded at 5,000 cells/well in collagen-coated 96-well plates. Test compounds were added to the media to obtain a final concentration of 10 μM. On culture day 7, cellular nucleic acids were prepared by using commercially available columns (RNeasy 96 kit, Qiagen). […] The mitochondrial cytochrome C oxidase subunit II (COXII) gene and the β-actin or rRNA gene were amplified from 5 μL with a multiplex Q-PCR protocol using the suitable primers and probes for both target and reference (designed using the Primer Express software, Applied Biosystems); • for COXII. • sense primer 5′-[…]-3′ (Sequence 7); • probe 5′-TET-[…]-TAMRA-3′ (Sequence 8); and • antisense probe 5′-[…]-3′ (Sequence 9); • for exon 3 of β-actin (GenBank E01094): • sense primer 5′-[…]-3′ (Sequence 10); • probe 5′-6FAM-[…]-TAMRA-3′ (Sequnece 11); and • antisense probe 5′-[…]-3′ (Sequence 12).
The rRNA gene primers and probes were purchased from Applied Biosystems. Standard curves using 1-log diluted total HepG2 DNA were linear over more than 5 logs. In addition, efficiencies of target (COXII DNA) and reference (β-actin DNA or rRNA) amplification were approximately equal, because the slope of the ΔCt line (Ct β-actin minus Ct mitochondrial) was less than 0.1 (not shown). Since equal amplification efficiencies were obtained for both genes, the comparative cycle threshold (Ct) method was used to investigate potential inhibition of the mitochondrial DNA polymerase γ. The comparative Ct method uses arithmetic formulas in which the amount of target (COXII gene) is normalized to an endogenous reference (β-actin gene or rRNA gene) and is relative to a calibrator (no drug control at day 7). The arithmetic formula for this approach is given by 2-ΔΔCt (User bulletin # 2, Applied Biosystems).
In order to study the consequences of possible inhibitory effects of these compounds on host DNA polymerases, nuclear and rnitochondrial DNA levels were quantified and compared to no-treatment controls. Cells were incubated for 7 days with 10 μM of each compound, followed by total nucleic acid extractions and multiplex Q-PCR of the rRNA gene and the mitochondrial COXII gene. Nucleic acids from cells exposed to the control compounds were also amplified in multiplex for mitDNA and the β-actin gene. The results are presented in Table 4 using the comparative Ct method.

For the next series, the system named is HBV. Put plainly: HBV Q-PCR in the HepG2.2.15 cell system. In kind it is cell-based, hepatitis B virus. To be noted: 10 μM, HepG2.2.15 system.
Another series has as its system HIV-1LAI. To be noted: human PBM cells; reported in Org. Lett. 2002; read-out: anti-HIV activity EC50; cited from earlier work.

Bounds are passed on as bounds.

`Cc1cn([C@H]2C[C@H](N=[N+]=[N-])[C@@H](CO)O2)c(=O)[nH]c1=O` [AZT, 3′-azido-3′-deoxythymidine, reference compound]: in the series “in vitro [1]”, the concentration for half-maximal inhibition (IC50) at 5 days was greater than 100 µM. The compound further had a 50% inhibitory concentration (IC50) at 3 days in “in vitro [2]” of 28 µM. Also, the “Average ΔCt ± SD β-actin DNA” value with β-actin gene came out at 0.10 ± 0.38.
For the compound `Nc1ccn([C@@H]2CS[C@H](CO)O2)c(=O)n1` [Compound 3TC, (−)-β-2′,3′-dideoxy-3′-thiacytidine, reference compound], in the series on β-actin gene, the “Average ΔCt ± SD β-actin DNA” value stood at 0.11 ± 0.23. Besides, the “maximal reduction of HBV DNA” value with HBV is recorded as 0.6 logs.
With `Nc1ccn([C@H]2S[C@@H](CO)C=C2F)c(=O)n1` [Compound L-17, (+)-1-[(1S,4R)-2,3-dideoxy-2,3-didehydro-2-fluoro-4-thio-β-L-ribofuranosyl]-cytosine], the EC50 in the series with HIV-1LAI was 0.12 µM.
